This test addresses T1, FAAH (Rattus norvegicus, UniProt P97612).
T1 construct: Preparation of Rat Brain Membranes Preparations (FAAH Enzyme Solution); from tissue; host or cells: rat cerebrum (brain membrane preparation)
T1 sequence (P97612 1-579): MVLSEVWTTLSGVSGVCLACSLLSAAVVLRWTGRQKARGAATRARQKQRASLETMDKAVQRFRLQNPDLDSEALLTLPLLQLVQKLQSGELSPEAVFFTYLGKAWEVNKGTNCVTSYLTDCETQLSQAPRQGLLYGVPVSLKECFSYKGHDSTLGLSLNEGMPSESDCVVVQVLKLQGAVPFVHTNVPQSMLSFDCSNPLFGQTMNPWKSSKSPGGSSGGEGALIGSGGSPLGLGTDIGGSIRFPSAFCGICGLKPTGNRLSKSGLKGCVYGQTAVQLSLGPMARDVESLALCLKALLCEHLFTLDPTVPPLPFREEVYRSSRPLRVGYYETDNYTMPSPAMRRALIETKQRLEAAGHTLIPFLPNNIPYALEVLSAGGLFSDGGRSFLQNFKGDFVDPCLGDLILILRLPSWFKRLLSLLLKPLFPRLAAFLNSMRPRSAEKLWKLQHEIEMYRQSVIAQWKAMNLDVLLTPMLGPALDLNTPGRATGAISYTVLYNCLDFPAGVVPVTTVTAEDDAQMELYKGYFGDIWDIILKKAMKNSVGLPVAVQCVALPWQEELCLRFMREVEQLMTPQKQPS
As to the kind of experiment: Determination of FAAH inhibitory activity in rat (rat brain membrane preparations, [3H]-anandamide hydrolysis). It counts as biochemical. The following applies: rat brain membrane preparations; for inhibition at 0.1 µM: read-out: FAAH Inhibition, Inhibition Rate at 100 nM; for IC50: test substance 0.1 nM to 1 μM, read-out: FAAH Inhibition IC50. The method in brief: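 Compounds tested from 0.1 nM to 1 μM to derive IC50 against FAAH hydrolysis in rat brain membrane preparations (100 μg/mL). A 10-min 37 °C preincubation was followed by 10 min with [3H]-anandamide (2 nM) mixed with 2 μM unlabelled anandamide. Radioactive ethanolamine was extracted into the water/methanol layer and counted.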

Turning to `CCCc1ccc(CCc2ncc3c(n2)n(C(=O)N(C)C)c(=O)n3C)cc1` [compound 500], the IC50 is 10 nM. Moreover, for the setting “100 nM test substance”, the inhibition at 0.1 µM is 104%. On the same counts, the results for `CCCOc1ccc(CCc2ncc3c(n2)n(C(=O)N(C)C)c(=O)n3C)cc1` [compound 501] are 10 nM and 103%.

On to `CC(C)c1ccc(CCc2ncc3c(n2)n(C(=O)N(C)C)c(=O)n3C)cc1` [compound 502], for which the half-maximal inhibitory concentration (IC50) was found to be 10 nM. Further, the inhibition at 0.1 µM (100 nM test substance) came to 104%.

Consider `CCc1ccc(CCc2ncc3c(n2)n(C(=O)N(C)C)c(=O)n3C)cc1` [compound 503], for which the concentration for half-maximal inhibition (IC50) was 10 nM. Besides, under “100 nM test substance”, the inhibition at 0.1 µM was 101%. For the compound `CN(C)C(=O)n1c(=O)n(C)c2cnc(CCc3cc(F)c(F)c(F)c3)nc21` [compound 504], the IC50 worked out at 6 nM. Further, the inhibition at 0.1 µM (100 nM test substance) came to 100%.

On to `Cc1ccc(C)c(CCc2ncc3c(n2)n(C(=O)N(C)C)c(=O)n3C)c1` [compound 507], for which the IC50 was determined as 24 nM. For the same compound, for the setting “100 nM test substance”, the inhibition at 0.1 µM turned out to be 95%. `CCCCc1ccc(CCc2ncc3c(n2)n(C(=O)N(C)C)c(=O)n3C)cc1` [compound 508]: the concentration for half-maximal inhibition (IC50) was found to be 5 nM. Also, the inhibition at 0.1 µM (100 nM test substance) was found to be 100%.

For the compound `Cc1cc(CCc2ncc3c(n2)n(C(=O)N(C)C)c(=O)n3C)ccc1F` [compound 509], the IC50 was found to be 10 nM. The inhibition at 0.1 µM (100 nM test substance) stood at 99%. As to `Cc1ccc(CCc2ncc3c(n2)n(C(=O)N(C)C)c(=O)n3C)cc1C` [compound 510], the half-inhibitory concentration (IC50) was found to be 11 nM. In addition, the inhibition at 0.1 µM (100 nM test substance) is 102%.

As for `Cc1cc(C)c(CCc2ncc3c(n2)n(C(=O)N(C)C)c(=O)n3C)c(C)c1` [compound 511], the IC50 was 13 nM. In addition, for the setting “100 nM test substance”, the inhibition at 0.1 µM is 95%. `Cc1cc(C)cc(CCc2ncc3c(n2)n(C(=O)N(C)C)c(=O)n3C)c1` [compound 514]: the half-inhibitory concentration (IC50) is 10 nM. Also, the inhibition at 0.1 µM (100 nM test substance) is 102%. Regarding `CCc1ccccc1CCc1ncc2c(n1)n(C(=O)N(C)C)c(=O)n2C` [compound 515], the IC50 came out at 10 nM. For the same compound, the inhibition at 0.1 µM (100 nM test substance) is 100%. Regarding `CCc1cccc(CCc2ncc3c(n2)n(C(=O)N(C)C)c(=O)n3C)c1` [compound 516], the IC50 stood at 10 nM. For the same compound, the inhibition at 0.1 µM (100 nM test substance) was determined as 100%. On to `CN(C)C(=O)n1c(=O)n(C)c2cnc(CCc3cccc(C4CC4)c3)nc21` [compound 517], for which the IC50 was found to be 10 nM. The inhibition at 0.1 µM (100 nM test substance) came to 98%. For `CCCc1cccc(CCc2ncc3c(n2)n(C(=O)N(C)C)c(=O)n3C)c1` [compound 518] the same measures were 9 nM and 107%. For `CN(C)C(=O)n1c(=O)n(C)c2cnc(CCc3cccc(OCC4CC4)c3)nc21` [compound 519] the same measures were 6 nM and 84%.

As for `CN(C)C(=O)n1c(=O)n(C)c2cnc(CCc3cccc(Cl)c3)nc21` [compound 520], the IC50 came out at 4 nM. The inhibition at 0.1 µM (100 nM test substance) amounted to 96%. For `CN(C)C(=O)n1c(=O)n(C)c2cnc(CCc3ccc(C4CC4)cc3)nc21` [compound 521], the IC50 was 13 nM. Where the note is “100 nM test substance”, the inhibition at 0.1 µM worked out at 85%. As to `CN(C)C(=O)n1c(=O)n(C)c2cnc(CCc3ccc(C4CC4)c(F)c3)nc21` [compound 524], the 50% inhibitory concentration (IC50) was determined as 94 nM. Moreover, the inhibition at 0.1 µM (100 nM test substance) turned out to be 80%.

On to `CN(C)C(=O)n1c(=O)n(C)c2cnc(CCc3ccc(F)c(C4CC4)c3)nc21` [compound 527], for which the half-maximal inhibitory concentration (IC50) came out at 28 nM. For the same compound, the inhibition at 0.1 µM (100 nM test substance) came out at 95%. For the compound `CN(C)C(=O)n1c(=O)n(C)c2cnc(CCc3cc(F)cc(F)c3)nc21` [compound 528], the IC50 turned out to be 55 nM. Further, the “FAAH Inhibition, Inhibition Rate at 100 nM” value (100 nM test substance, 0.1 µM) came out at 72%. Turning to `CN(C)C(=O)n1c(=O)n(C)c2cnc(CCc3ccc(OC4CCC4)cc3)nc21` [compound 531], the IC50 is 30 nM. In addition, the inhibition at 0.1 µM (100 nM test substance) came out at 80%. In the case of `CN(C)C(=O)n1c(=O)n(C)c2cnc(CCc3ccc(OC4CCCC4)cc3)nc21` [compound 532], the IC50 stood at 13 nM. For the same compound, the inhibition at 0.1 µM (100 nM test substance) turned out to be 96%. Take `CCOc1cccc(CCc2ncc3c(n2)n(C(=O)N(C)C)c(=O)n3C)c1` [compound 534]: the 50% inhibitory concentration (IC50) amounted to 131 nM. The inhibition at 0.1 µM (100 nM test substance) turned out to be 47%. On the same counts, the results for `CCCOc1cccc(CCc2ncc3c(n2)n(C(=O)N(C)C)c(=O)n3C)c1` [compound 535] are 75 nM and 61%. For `CC(C)Oc1cccc(CCc2ncc3c(n2)n(C(=O)N(C)C)c(=O)n3C)c1` [compound 536] the same measures were 131 nM and 41%.

In the case of `CN(C)C(=O)n1c(=O)n(C)c2cnc(CCc3cccc(C(F)F)c3)nc21` [compound 537], the IC50 was found to be 153 nM. Under “100 nM test substance”, the inhibition at 0.1 µM is 41%. For `CN(C)C(=O)n1c(=O)n(C)c2cnc(CCc3cccc(C(F)(F)F)c3)nc21` [compound 539], the IC50 turned out to be 17 nM. Also, the inhibition at 0.1 µM (100 nM test substance) came to 92%.

For the compound `CN(C)C(=O)n1c(=O)n(C)c2cnc(CCc3ccccc3C(F)(F)F)nc21` [compound 542], the IC50 amounted to 10 nM. Moreover, for the setting “100 nM test substance”, the inhibition at 0.1 µM is 100%. For the compound `COc1cccc(CCc2ncc3c(n2)n(C(=O)N(C)C)c(=O)n3C)c1` [compound 543], the IC50 turned out to be 67 nM. Moreover, under “100 nM test substance”, the inhibition at 0.1 µM came to 70%.

For the compound `COc1ccc(CCc2ncc3c(n2)n(C(=O)N(C)C)c(=O)n3C)cc1` [compound 544], the IC50 was 11 nM. For the same compound, the inhibition at 0.1 µM (100 nM test substance) came out at 122%. Turning to `CN(C)C(=O)n1c(=O)n(C)c2cnc(CCc3ccccc3C(F)F)nc21` [compound 546], the IC50 is 28 nM. Besides, the inhibition at 0.1 µM (100 nM test substance) came out at 86%. As to `CN(C)C(=O)n1c(=O)n(C)c2cnc(CCc3cccc(OC(F)F)c3)nc21` [compound 548], the half-inhibitory concentration (IC50) was 27 nM. For the same compound, where the note is “100 nM test substance”, the inhibition at 0.1 µM was determined as 79%. Turning to `CN(C)C(=O)n1c(=O)n(C)c2cnc(CCc3ccccc3OC(F)(F)F)nc21` [compound 549], the IC50 worked out at 22 nM. Further, the inhibition at 0.1 µM (100 nM test substance) was 77%.

As to `CN(C)C(=O)n1c(=O)n(C)c2cnc(CCc3cccc(F)c3F)nc21` [compound 550], the IC50 worked out at 20 nM. The inhibition at 0.1 µM (100 nM test substance) was 87%. As for `CN(C)C(=O)n1c(=O)n(C)c2cnc(CCc3c(F)cccc3F)nc21` [compound 551], the half-inhibitory concentration (IC50) is 104 nM. The inhibition at 0.1 µM (100 nM test substance) came to 40%. Regarding `CCN(C)C(=O)n1c(=O)n(C)c2cnc(CCc3ccccc3F)nc21` [compound 554], the inhibition at 0.1 µM (100 nM test substance) came out at 43%. For the compound `CCN(C)C(=O)n1c(=O)n(C)c2cnc(CCc3ccc(F)cc3)nc21` [compound 555], the IC50 was 106 nM. Under “100 nM test substance”, the inhibition at 0.1 µM amounted to 48%. As for `CCN(C)C(=O)n1c(=O)n(C)c2cnc(CCc3cccc(C)c3)nc21` [compound 556], the half-inhibitory concentration (IC50) turned out to be 44 nM. The inhibition at 0.1 µM (100 nM test substance) came to 78%. For `CCN(C)C(=O)n1c(=O)n(C)c2cnc(CCc3cccc(OC)c3)nc21` [compound 557], the concentration for half-maximal inhibition (IC50) was 67 nM. In addition, the inhibition at 0.1 µM (100 nM test substance) was 66%.

Take `CCN(C)C(=O)n1c(=O)n(C)c2cnc(CCc3cccc(OC(F)(F)F)c3)nc21` [compound 558]: the IC50 was determined as 23 nM. Further, the inhibition at 0.1 µM (100 nM test substance) stood at 83%.

On to `Cc1ccc(CCc2ncc3c(n2)n(C(=O)N2CCC2)c(=O)n3C)cc1` [compound 559], for which the IC50 is 10 nM. Also, where the note is “100 nM test substance”, the inhibition at 0.1 µM is 97%.

For `Cc1cccc(CCc2ncc3c(n2)n(C(=O)N2CCC2)c(=O)n3C)c1` [compound 560], the IC50 is 14 nM. In addition, where the note is “100 nM test substance”, the inhibition at 0.1 µM is 91%. Turning to `CCc1ccc(CCc2ncc3c(n2)n(C(=O)N2CCC2)c(=O)n3C)cc1` [compound 561], the half-maximal inhibitory concentration (IC50) came to 10 nM. For the setting “100 nM test substance”, the inhibition at 0.1 µM was 99%. For `CCCc1ccc(CCc2ncc3c(n2)n(C(=O)N2CCC2)c(=O)n3C)cc1` [compound 562], the IC50 is 10 nM. For the same compound, the inhibition at 0.1 µM (100 nM test substance) stood at 101%. On the same counts, the results for `CC(C)c1ccc(CCc2ncc3c(n2)n(C(=O)N2CCC2)c(=O)n3C)cc1` [compound 563] are 7 nM and 100%. Turning to `CCCOc1ccc(CCc2ncc3c(n2)n(C(=O)N2CCC2)c(=O)n3C)cc1` [compound 564], the IC50 stood at 9 nM. Further, the inhibition at 0.1 µM (100 nM test substance) came to 98%.

For `Cc1ccc(CCc2ncc3c(n2)n(C(=O)N2CCC2)c(=O)n3C)cc1C` [compound 565], the 50% inhibitory concentration (IC50) stood at 10 nM. For the same compound, the inhibition at 0.1 µM (100 nM test substance) was determined as 99%.

On to `Cc1cc(C)c(CCc2ncc3c(n2)n(C(=O)N2CCC2)c(=O)n3C)c(C)c1` [compound 566], for which the IC50 was determined as 10 nM. The inhibition at 0.1 µM (100 nM test substance) is 96%. In the case of `Cn1c(=O)n(C(=O)N2CCC2)c2nc(CCc3cccc(C4CC4)c3)ncc21` [compound 572], the IC50 was found to be 99 nM. Also, the inhibition at 0.1 µM (100 nM test substance) turned out to be 83%.

The term inhibition denotes the change of the read-out against control, counted positive when it falls. As usually defined, the IC50 is the concentration that gives 50% inhibition.

The values are drawn from US8735406B2, “8-oxodihydropurine derivative” (Dainippon Sumitomo Pharma Co., Ltd., priority 2009, dated 2014).
